Test results: patent US4512986A, “Progrestationally active steroids” (priority 1983, dated 1985)

What was measured:
[1] = biological target: T1, Cytosol Progesterone Receptor of the Estrogen-primed Immature Rabbit Uterus (Oryctolagus cuniculus, UniProt P06186); test: Relative binding affinity for progesterone receptor (competition with 3H-progesterone); design: species or system rabbit (New Zealand White)
T1 construct: cytosol progesterone receptor of the estrogen-primed immature rabbit uterus; tissue Dutchland Laboratories, Inc., Denver, Pa (animals); host or cells: uterus cytosol of estradiol-treated immature female New Zealand White rabbits
T1 sequence (P06186 1-930): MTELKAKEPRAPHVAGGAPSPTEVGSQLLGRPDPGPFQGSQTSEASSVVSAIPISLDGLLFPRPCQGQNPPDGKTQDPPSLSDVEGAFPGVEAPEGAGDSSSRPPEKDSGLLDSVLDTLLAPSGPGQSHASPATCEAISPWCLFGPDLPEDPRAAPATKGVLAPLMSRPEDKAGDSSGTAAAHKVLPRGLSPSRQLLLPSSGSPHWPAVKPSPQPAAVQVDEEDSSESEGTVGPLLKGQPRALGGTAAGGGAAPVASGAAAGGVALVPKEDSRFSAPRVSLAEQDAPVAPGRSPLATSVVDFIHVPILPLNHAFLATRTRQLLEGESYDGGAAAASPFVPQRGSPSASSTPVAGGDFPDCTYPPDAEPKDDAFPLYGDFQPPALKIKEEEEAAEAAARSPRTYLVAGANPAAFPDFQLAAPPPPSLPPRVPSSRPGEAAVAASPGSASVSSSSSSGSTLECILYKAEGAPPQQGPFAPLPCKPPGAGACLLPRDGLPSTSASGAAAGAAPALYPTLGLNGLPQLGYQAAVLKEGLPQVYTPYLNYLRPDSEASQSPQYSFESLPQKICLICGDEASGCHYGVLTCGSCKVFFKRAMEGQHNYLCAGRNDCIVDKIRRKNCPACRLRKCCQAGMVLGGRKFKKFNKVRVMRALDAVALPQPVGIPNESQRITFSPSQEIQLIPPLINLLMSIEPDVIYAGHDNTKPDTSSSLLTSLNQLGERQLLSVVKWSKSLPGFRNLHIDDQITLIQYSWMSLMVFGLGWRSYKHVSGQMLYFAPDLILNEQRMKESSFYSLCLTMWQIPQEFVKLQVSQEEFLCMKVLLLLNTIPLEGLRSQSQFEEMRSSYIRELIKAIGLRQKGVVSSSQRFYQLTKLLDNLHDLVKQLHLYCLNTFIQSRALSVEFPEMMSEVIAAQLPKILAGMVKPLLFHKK

cycling rats = test: Blockade of ovulation in rats; format: in vivo, rat (Charles River CD); conditions: for No. Rats Ovulated (of rats treated) / No. of Oviductal Eggs in Rats that Ovulated (X ± S.D.): single sc
Excerpt: The treated rats were sacrificed on the morning of expected estrus and eggs, if present, were flushed from the oviducts and counted. | *This assay employs cycling Charles River CD rats. For methods refer to | Beattie, C. W. and A. Corbin, Endocrinology 97, 885, 1975. […] | diestrus. Rats were sacrificed 43 to 44 hr later on the morning of | expected estrus. Eggs, if present, were flushed from oviducts and counted | under a stereomicroscope.

## C#C[C@]1(C(C)=O)CC[C@H]2[C@@H]3CCC4=CC(=O)CC[C@]4(C)[C@H]3CC[C@@]21C [17α-Ethynylprogesterone, 17α-ethynylprogesterone]
[1]; 16 to 18 hour incubation at 0° C., spurious value 11 excluded
  RBA, mean of assays (X±S.D.): 189±55
[1]; Assay 1, 16-18 hour incubation, progesterone = 100, 5α-dihydro-17α-ethynyl: lot 1
  RBA: 156%
[1]; Assay 2, 16-18 hour incubation, progesterone = 100, 5α-dihydro-17α-ethynyl: lot 1
  RBA: 267%
[1]; Assay 3, 16-18 hour incubation, progesterone = 100, 5α-dihydro-17α-ethynyl: lot 1
  RBA: 144%
[1]; two-hour incubation at 0° C.
  RBA: 352
Cycling rats; 500 μg progesterone, 100, 250 or 500 μg 17α-ethynylprogesterone
  ovulation, in words: ovulation was blocked in most rats
Cycling rats; 100 or 250 μg progesterone, 50 μg 17α-ethynylprogesterone
  ovulation, in words: ovulated in a normal fashion
Cycling rats; comparison with literature
  potency in blocking ovulation relative to (±)-norgestrel, in words: equipotent with (±)-norgestrel
Cycling rats; sc
  potency in blocking ovulation relative to progesterone, in words: about five times as potent as progesterone
Cycling rats; 50 μg/rat
  No. Rats Ovulated (of rats treated): 4/5
  No. of Oviductal Eggs in Rats that Ovulated (X ± S.D.): 10.5 ± 2.1
Cycling rats; 100 μg/rat
  No. Rats Ovulated (of rats treated): 1/5
  No. of Oviductal Eggs in Rats that Ovulated (X ± S.D.): 3.0
Cycling rats; 250 μg/rat
  No. Rats Ovulated (of rats treated): 1/5
  No. of Oviductal Eggs in Rats that Ovulated (X ± S.D.): 6.0
Cycling rats; 500 μg/rat
  No. Rats Ovulated (of rats treated): 0/5
  No. of Oviductal Eggs in Rats that Ovulated (X ± S.D.): 0.0
